Results published in patent EP0630648A1, “Use of acyl L-carnitine gamma-hydroxybutyrate for the treatment of drug addiction” (Sigma-Tau Industrie Farmaceutiche Riunite S.p.A., priority 1993, dated 1994).
Marks after values point to notes of the source that are not given here.

Legend:
male Wistar rats [1] = test: Withdrawal syndrome due to naloxone administration in morphine-treated rats; type: in vivo; details: morphine for 10 days; for Weight loss: mean loss of body weight 1 hour after naloxone injection (1 mg/kg subcutaneous); for Latency of stereotype jumps: then naloxone 1 mg/kg subcutaneous, cut-off time 900 sec.
Experimental: After repeated treatment with morphine for a period of 10 days, the rats were all weighed and administered naloxone (1 mg/kg dissolved in saline solution) by subcutaneous injection. The resulting withdrawal syndrome was assessed by measuring the latency of onset of "stereotype jumps" from a circular platform measuring 35 cm in diameter and 70 cm in height. A cut-off time of 900 sec. was used. In 5 groups of animals, naloxone administration was combined with administration of saline, VCGB, GHB, LAC and VC, respectively.
The body weight of the animals was then measured again 1 hour after naloxone injection and the mean loss of body weight was calculated for each group of animals treated.

male Wistar rats [2] = test: Hot-plate test: onset of habituation to the analgesic action of morphine; type: in vivo; details: for mean latency: after 15 days of daily morphine, substance 100 mg/kg i.p., morphine 10 mg/kg i.p., plate 51°C
Experimental: Morphine addiction was induced in the rats by daily injections for a period of 15 days.
Five different groups of animals also received saline solution, VCGB, GHB, LAC or VC (100 mg/kg i.p.), respectively.

male Wistar rats [3] = test: Heroin self-administration behaviour in rats; details: 100 mg/kg daily intraperitoneal; for number of heroin self-administrations: in the space of 3 hours

CC(C)CC(=O)O[C@H](CC(=O)[O-])C[N+](C)(C)C [VC, isovaleryl L-carnitine]
Weight loss (male Wistar rats [1]): 16.6 ± 2.1 g
Latency of stereotype jumps (male Wistar rats [1]): 480 ± 99 s
mean latency (male Wistar rats [2]; T 0): 6.0 s
mean latency (male Wistar rats [2]; T 30): 10.0* sec.
mean latency (male Wistar rats [2]; T 240): 6.0 s
number of heroin self-administrations (male Wistar rats [3]; 3rd day): 7.2 ± 0.5
number of heroin self-administrations (male Wistar rats [3]; 4th day): 9.5 ± 0.5
number of heroin self-administrations (male Wistar rats [3]; 5th day): 8.8 ± 0.5

CC(=O)OC(CC(=O)[O-])C[N+](C)(C)C [LAC, acetyl L-carnitine]
Weight loss (male Wistar rats [1]): 18.6 ± 2.1 g
Latency of stereotype jumps (male Wistar rats [1]): 465 ± 99 s
mean latency (male Wistar rats [2]; T 0): 6.0 s
mean latency (male Wistar rats [2]; T 30): 10.0* sec.
mean latency (male Wistar rats [2]; T 240): 6.0 s
number of heroin self-administrations (male Wistar rats [3]; 3rd day): 7.0 ± 0.5
number of heroin self-administrations (male Wistar rats [3]; 4th day): 9.2 ± 0.5
number of heroin self-administrations (male Wistar rats [3]; 5th day): 8.9 ± 0.8

O=C(O)CCCO [GHB, gamma-hydroxybutyric acid]
Weight loss (male Wistar rats [1]): 15.5 ± 0.6 g
Latency of stereotype jumps (male Wistar rats [1]): 451 ± 63 s
mean latency (male Wistar rats [2]; T 0): 5.5 s
mean latency (male Wistar rats [2]; T 30): 13.0* sec.
mean latency (male Wistar rats [2]; T 240): 6.0 s
number of heroin self-administrations (male Wistar rats [3]; 3rd day): 7.5 ± 0.6
number of heroin self-administrations (male Wistar rats [3]; 4th day): 8.0 ± 0.7
number of heroin self-administrations (male Wistar rats [3]; 5th day): 9.0 ± 0.6

CC(C)CC(=O)O[C@H](CC(=O)OCCCC(=O)[O-])C[N+](C)(C)C [VCGB, isovaleryl L-carnitine gamma-hydroxybutyrate]
Weight loss (male Wistar rats [1]): 12.3 ± 0.6 g
Latency of stereotype jumps (male Wistar rats [1]): 564 ± 69 s
mean latency (male Wistar rats [2]; T 0): 6.5 s
mean latency (male Wistar rats [2]; T 30): 14.0* sec.
mean latency (male Wistar rats [2]; T 240): 10.0* sec.
effect on habituation to morphine-induced analgesia (in words) (male Wistar rats [2]; summary of the table, 100 mg/kg i.p.): reduce habituation to morphine-induced analgesia to an appreciable extent
number of heroin self-administrations (male Wistar rats [3]; 3rd day): 6.3 ± 0.5
number of heroin self-administrations (male Wistar rats [3]; 4th day): 6.8 ± 0.4
number of heroin self-administrations (male Wistar rats [3]; 5th day): 6.3 ± 0.5
effect on number of heroin self-administrations (in words) (male Wistar rats [3]; summary of the table): very long-lasting action in reducing the number of self-administrations
